Assay results from ChEMBL document CHEMBL5365471, “Discovery of marine phidianidine-based Nrf2 activators and their potential against oxLDL- and HG-induced injury in HUVECs” (Bioorg Med Chem Lett, 2023).
Calls of active or inactive are those of the source. The rule behind the calls is not given here.

Assays:
[1] = target: T1, Nuclear factor erythroid 2-related factor 2 (Homo sapiens) (UniProt Q16236); assay: Induction of Nrf2 nuclear translocation in high glucose-induced HUVEC cells at 5 to 10 uM measured after 24 hrs by immunofluorescence staining analysis; type: cell-based; details: filed as activator, dose 5-10 µM
T1 sequence (whole entry): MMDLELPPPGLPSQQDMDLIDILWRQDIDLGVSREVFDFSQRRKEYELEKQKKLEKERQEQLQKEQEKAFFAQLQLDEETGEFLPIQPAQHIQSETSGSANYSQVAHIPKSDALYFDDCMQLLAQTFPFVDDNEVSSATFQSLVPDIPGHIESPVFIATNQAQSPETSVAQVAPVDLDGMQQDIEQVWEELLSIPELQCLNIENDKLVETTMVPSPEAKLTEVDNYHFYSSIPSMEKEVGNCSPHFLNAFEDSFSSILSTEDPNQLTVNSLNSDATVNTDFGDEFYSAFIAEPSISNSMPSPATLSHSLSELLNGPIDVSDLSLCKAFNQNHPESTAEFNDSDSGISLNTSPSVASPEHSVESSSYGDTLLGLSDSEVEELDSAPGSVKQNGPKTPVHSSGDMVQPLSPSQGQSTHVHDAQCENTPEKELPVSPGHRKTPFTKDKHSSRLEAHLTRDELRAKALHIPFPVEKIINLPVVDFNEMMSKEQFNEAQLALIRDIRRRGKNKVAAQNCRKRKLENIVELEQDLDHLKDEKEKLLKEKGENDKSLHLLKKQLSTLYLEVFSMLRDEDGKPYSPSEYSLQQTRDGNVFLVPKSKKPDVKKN

HUVEC [2] = assay: Cytoprotective activity against high glucose-induced apoptosis in HUVEC cells measured after 24 hrs by TUNEL assay; type: functional, cell-based; details: Homo sapiens, dose 5-10 µM
HUVEC [3] = assay: Cytotoxicity against HUVEC assessed as effect on cell viability by SRB assay; type: toxicity, cell-based; details: human
HUVEC [4] = assay: Cytoprotective activity against high glucose-induced apoptosis in Nrf2-knockdown HUVEC at 10 uM measured after 24 hrs by TUNEL assay; type: functional, cell-based; details: Homo sapiens
[5] = target: T1, Nuclear factor erythroid 2-related factor 2 (Homo sapiens); assay: Induction of Nrf2/ARE activation in human Hela cells at 20 uM measured after 12 to 24 hrs by luciferase reporter gene assay relative to control; type: cell-based; details: filed as activator, time 12-24 hrs
HUVEC [6] = assay: Cytoprotective activity against high glucose-induced HUVEC cell damage assessed as increase in cell viability at 10 uM by SRB assay; type: functional, cell-based; details: Homo sapiens
HUVEC [7] = assay: Cytoprotective activity against oxLDL-induced apoptosis in HUVEC cells measured after 6 hrs by TUNEL assay; type: functional, cell-based; details: Homo sapiens, dose 5-10 µM
HUVEC [8] = assay: Cytoprotective activity against oxLDL-induced apoptosis in HUVEC treated with scambled siRNA at 10 uM measured after 6 hrs by TUNEL assay; type: functional, cell-based; details: Homo sapiens
[9] = target: T1, Nuclear factor erythroid 2-related factor 2 (Homo sapiens); assay: Induction of Nrf2/ARE activation in human Hela cells at 10 uM measured after 12 to 24 hrs by luciferase reporter gene assay relative to control; type: cell-based; details: filed as activator, time 12-24 hrs
[10] = target: T1, Nuclear factor erythroid 2-related factor 2 (Homo sapiens); assay: Induction of Nrf2 nuclear translocation in oxLDL-induced HUVEC cells at 5 to 10 uM measured after 6 hrs by immunofluorescence staining analysis; type: cell-based; details: filed as activator, dose 5-10 µM
[11] = target: T1, Nuclear factor erythroid 2-related factor 2 (Homo sapiens); assay: Induction of Nrf2/ARE activation in human Hela cells at 1 uM measured after 12 to 24 hrs by luciferase reporter gene assay relative to control; type: cell-based; details: filed as activator, time 12-24 hrs
HUVEC [12] = assay: Cytoprotective activity against oxLDL-induced apoptosis in Nrf2-knockdown HUVEC at 10 uM measured after 6 hrs by TUNEL assay; type: functional, cell-based; details: Homo sapiens
HUVEC [13] = assay: Cytoprotective activity against high glucose induced apoptosis in HUVEC treated with scambled siRNA at 10 uM measured after 24 hrs by TUNEL assay; type: functional, cell-based; details: Homo sapiens
[14] = target: Keap1/Nrf2 (Homo sapiens) (UniProt Q16236+Q14145); assay: Inhibition of Keap1-Nrf2 protein-protein interaction (unknown origin) at 100 uM measured after 60 mins by FITC-betaAla-DEETGEF-OH probe based fluorescent polarization assay
Keap1/Nrf2 (Homo sapiens), sequence (Q14145 whole entry, looked up, one chain of several): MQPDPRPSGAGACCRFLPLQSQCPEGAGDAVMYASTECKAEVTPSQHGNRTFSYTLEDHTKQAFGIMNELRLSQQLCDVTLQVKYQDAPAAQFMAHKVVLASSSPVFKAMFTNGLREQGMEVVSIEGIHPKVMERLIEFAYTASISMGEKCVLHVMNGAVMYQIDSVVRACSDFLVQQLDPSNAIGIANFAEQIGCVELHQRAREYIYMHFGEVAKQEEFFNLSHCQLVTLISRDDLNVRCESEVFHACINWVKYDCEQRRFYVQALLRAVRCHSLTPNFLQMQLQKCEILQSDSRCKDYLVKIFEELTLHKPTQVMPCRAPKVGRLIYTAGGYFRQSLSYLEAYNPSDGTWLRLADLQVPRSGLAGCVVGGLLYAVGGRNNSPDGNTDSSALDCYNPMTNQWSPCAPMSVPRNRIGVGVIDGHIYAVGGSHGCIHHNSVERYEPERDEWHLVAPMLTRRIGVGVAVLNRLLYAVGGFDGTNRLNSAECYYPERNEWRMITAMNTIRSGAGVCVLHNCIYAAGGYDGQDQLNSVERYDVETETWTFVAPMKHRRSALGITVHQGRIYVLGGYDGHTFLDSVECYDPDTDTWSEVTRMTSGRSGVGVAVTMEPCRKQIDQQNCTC

HUVEC [15] = assay: Cytoprotective activity against oxLDL-induced HUVEC cell damage assessed as increase in cell viability at 10 uM by SRB assay; type: functional, cell-based; details: Homo sapiens
[16] = target: T1, Nuclear factor erythroid 2-related factor 2 (Homo sapiens); assay: Induction of Nrf2/ARE activation in human Hela cells at 5 uM measured after 12 to 24 hrs by luciferase reporter gene assay relative to control; type: cell-based; details: filed as activator, time 12-24 hrs

COc1ccc(/C=C/C(=O)N2CCN(Cc3noc(Cc4c[nH]c5ccccc45)n3)CC2)cc1O
Activity [1]: Active
Activity (HUVEC [2]): Dose-Dependent Effect
Activity (HUVEC [3]): Non-Toxic
Activity (HUVEC [4]): inactive
fold change (FC) [5]: 7.41
Activity (HUVEC [6]): Active
Activity (HUVEC [7]): Dose-Dependent Effect
Activity (HUVEC [8]): Active
fold change (FC) [9]: 7.78
Activity [10]: Active
fold change (FC) [11]: 1.89
Activity (HUVEC [12]): inactive
Activity (HUVEC [13]): Active
inhibition [14]: inactive
Activity (HUVEC [15]): Active
fold change (FC) [16]: 3.69
